The values below come from ChEMBL document CHEMBL1201862, “PubChem BioAssay data set” (2004).

Assay in all cases: NCI anticancer screen, dose series, 48 h
Test [1] concerns SK-MEL-2.
Test [2] concerns Malme-3M.
Test [3] has as its system M14.
Test [4] deals with A498.
The test system of test [5] is CCRF-CEM.
Test [6] has as its system NCI-H23.
Test [7] has as its system SK-MEL-5.
The test system of test [8] is 786-0.
For test [9], the system named is LOX IMVI.
Test [10] deals with A549.
Test [11] relates to EKVX.
The subject of test [12] is HCT-116.
Test [13] has as its system HT-29.
Test [14] has as its system OVCAR-3.
Test [15] relates to SR.
For test [16], the system named is MOLT-4.
The test system of test [17] is HCT-15.

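Dose response: 5 concentrations. Exposure: 48 h. Format: 96-well plates. Endpoint: linear interpolation; highest concentration if not reached. GI50: concentration for 50% inhibition of growth.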 The source made the active and inactive calls. No stated cut-off is given here; in the data, active = GI50 up to about 1.1 µM and inactive = higher. Some results are limits rather than exact numbers.

As to `CCOCN/C(N)=N\C#N`, the GI50 in test [1], in [2], in [3], in test [4], in test [5] and in test [6] was > 100 µM (inactive) each time. Also, the GI50 in test [7] was > 100 µM (inactive); in test [8], 23.9 µM (inactive); in test [9], 12.1 µM (inactive); in test [10], > 100 µM (inactive); in test [11], > 100 µM (inactive); in [12], > 100 µM (inactive). In addition, the GI50 in [13] was > 100 µM (inactive); in test [14], > 100 µM (inactive); in test [15] it was 36.6 µM (inactive); in test [16], > 100 µM (inactive); in test [17], 20.5 µM.
Take `O=C(CCc1nnc2s/c(=C\c3ccc4c(c3)OCO4)c(=O)n12)Nc1cc(Cl)ccc1Cl`: the GI50 in [1], in test [2], in test [3], in test [4], in [5] and in [6] was > 100 µM (inactive) in each case. Further, the GI50 in [7] was > 100 µM (inactive); in test [8], > 100 µM (inactive); in [9] it was > 100 µM (inactive); in test [10], > 100 µM (inactive); in test [11], > 100 µM (inactive); in test [12] it was > 50.9 µM (inactive). The GI50 in test [13] was > 100 µM (inactive); in [14], > 100 µM (inactive); in [15], > 100 µM (inactive); in test [16], > 100 µM (inactive); in test [17] it was greater than 39.8 µM.
Take `O=S1(=O)OCCOS(=O)(=O)C1(I)I`: the GI50 in [1] was 22 µM (inactive); in [2], 20.4 µM (inactive); in [3], 20 µM (inactive); in test [4], 16.7 µM (inactive); in test [5] it was 10.9 µM (inactive); in test [6] it was 11.1 µM (inactive). The GI50 in test [7] is 15.5 µM (inactive); in test [8] it was 20.1 µM (inactive); in [9] it was 16.2 µM (inactive); in test [10], 26.2 µM (inactive); in [11], 27.5 µM (inactive); in test [12] it was 16.3 µM (inactive). For the same compound, the GI50 is 24.8 µM (inactive) in test [13], 24 µM (inactive) in [14], 12.3 µM (inactive) in test [15] and 15.9 µM (inactive) in test [16].
Regarding `C#CC1(O)CCC2[C@@H]3CCc4cc(Oc5nc(F)nc(-c6c7ccccc7cn6C)n5)ccc4C3CC[C@@]21C` (some centres undefined), the GI50 was > 100 µM (inactive) in test [1]; > 100 µM (inactive) in [2]; > 100 µM (inactive) in [3]; > 100 µM (inactive) in test [4]; 30.7 µM (inactive) in [5]; > 100 µM (inactive) in test [6]. In addition, the GI50 in test [8], in test [9], in test [10], in [11], in test [12] and in test [13] was > 100 µM (inactive) throughout. Besides, the GI50 is > 100 µM (inactive) in test [14], > 46.3 µM (inactive) in [15], 44.9 µM (inactive) in test [16] and greater than 72.3 µM in [17].
`N=C(N)Nc1nc2cc(N)ccc2o1`: the GI50 in test [1], in [2], in test [3], in test [4], in [5] and in test [6] was > 100 µM (inactive) each time. Also, the GI50 in test [8], in test [9], in test [10], in test [11], in test [12] and in [13] was > 100 µM (inactive) in each case. For the same compound, the GI50 in [15] was > 100 µM (inactive); in [16], > 100 µM (inactive); in [17] it was greater than 100 µM.
On to `C=C1C(=O)C23C(O)C1CCC2C12CO[C@]3(O)[C@@H](O)C1C(C)(C)CCC2O` (some centres undefined), for which the GI50 in test [1] was 15.7 µM (inactive); in test [2], 5.92 µM (inactive); in test [3], 11.6 µM (inactive); in test [4] it was 21.2 µM (inactive); in test [5] it was 1.63 µM (inactive); in test [6], 19.6 µM (inactive). Moreover, the GI50 in test [7] was 22.4 µM (inactive); in test [8], 12.2 µM (inactive); in test [9], 16.5 µM (inactive); in test [10], 18.5 µM (inactive); in test [11], 15 µM (inactive); in test [12], 10.4 µM (inactive). For the same compound, the GI50 was 13.5 µM (inactive) in [13]; 16.4 µM (inactive) in [14]; 4.31 µM (inactive) in [15]; 3.87 µM (inactive) in test [16]; 11.9 µM in [17].
Take `CCCC/C=C1\CCC(CN2CCCC2)C1=O` (centres undefined): the GI50 was 16 µM (inactive) in test [1]; 17.8 µM (inactive) in [2]; 11.2 µM (inactive) in test [3]; 14.7 µM (inactive) in [4]; 3.5 µM (inactive) in [5]; 17.7 µM (inactive) in test [6]. In addition, the GI50 in test [7] was 17.3 µM (inactive); in test [8], 1.83 µM (inactive); in [9], 8.09 µM (inactive); in test [10], 18.5 µM (inactive); in test [11] it was 3.98 µM (inactive); in test [12], 14.3 µM (inactive). The GI50 in test [13] was 14.5 µM (inactive); in test [14], 17.1 µM (inactive); in test [15] it was 4.36 µM (inactive); in test [16] it was 3.57 µM (inactive); in [17], 3.13 µM.
Take `NC1=Nc2ccccc2Sc2ccccc21`: the GI50 is > 100 µM (inactive) in test [1]; > 100 µM (inactive) in [2]; > 100 µM (inactive) in test [3]; 84.9 µM (inactive) in test [4]; > 100 µM (inactive) in [5]; > 100 µM (inactive) in [6]. Further, the GI50 in [7] is 91.8 µM (inactive); in test [8], > 100 µM (inactive); in test [9], > 100 µM (inactive); in test [10], > 100 µM (inactive); in test [11], > 100 µM (inactive); in test [12], 35.9 µM (inactive). Also, the GI50 is > 100 µM (inactive) in test [13]; > 100 µM (inactive) in test [14]; > 100 µM (inactive) in test [15]; > 100 µM (inactive) in test [16]; greater than 100 µM in test [17].
For the compound `CS(=O)(=O)OCCN(CCOS(C)(=O)=O)c1ccc(/C=N/N=c2/nc[nH]c3nc[nH]c23)cc1`, the GI50 in [1] is 20.4 µM (inactive); in test [2], 27 µM (inactive); in test [3], 17.6 µM (inactive); in [4], 25.7 µM (inactive); in [5], 8.09 µM (inactive); in [6] it was 14.8 µM (inactive). In addition, the GI50 in [7] is 15.9 µM (inactive); in [8] it was 16.3 µM (inactive); in test [9], 15.1 µM (inactive); in [10] it was 26.2 µM (inactive); in test [11], 33.2 µM (inactive); in test [12] it was 17.3 µM (inactive). The GI50 in test [13] is 17.8 µM (inactive); in [14], 13.4 µM (inactive); in test [15], 4.57 µM (inactive); in test [16] it was 4.84 µM (inactive); in [17], 31 µM.
